Measured values published in patent US20100004174A1, “USE OF THYMOSIN ALPHA 1 FOR THE PREPARATION OF A MEDICAMENT FOR THE PREVENTION AND TREATMENT OF AUTOIMMUNE DISEASES” (SIGMA-TAU INDUSTRIE FARMACEUTICHE, priority 2006, published 2010).
No end group written: not given here.

Legend:
[1] = test system: EAE (experimental autoimmune encephalitis); test: EAE model induced with MOG35-55 peptide in mice, clinical score and spinal cord histology; assay type: in vivo, C57BL6 mice
Experimental: To this end, an EAE model was used envisaging the induction of disease by administering a peptide deriving from myelin in susceptible animals. The anima were treated with thymosin alpha 1, whose efficiency was evaluated according to clinical and histological parameters.
EAE is induced in C57BL6 mice by injecting 100 microlitres of emulsion consisting of 100 microgrammes of MOG35-55 (a peptide fragment of a myelinic glycoprotein) in complete Freund adjuvant (CFA, 4 microgrammes/ml) at the base of the tail. EAE induction is favoured by the intraperitoneal administration of the pertoxic toxin at a dosage of 200 ng/mouse the day of immunisation and three days later. The treatment with thymosin alpha 1 (200 ng/Kg) is carried out via intraperitoneal injection according to two experimental designs. In the first case, thymosin is administered starting from the day of MOG administration and for three consecutive days thereafter (Tα1+MOG). In the second case, thymosin is administered starting from the tenth day after MOG administration and for three consecutive days thereafter (MOG+Tα1).
The mice were clinically evaluated daily according to the following parameters: 0, normal; 1, flacid tail or weakness of hind legs; 2, flacid tail associated with weakness of hind legs; 3, partial paralysis of hind legs; 4, total paralysis of hind legs; 5, moribund state. […]

TNBS colitis = test: TNBS-induced colitis model of IBD (DAS, MAS, MPO); assay type: in vivo, mice
Experimental: To this end, an IBD model was used envisaging the induction of the disease by intracolonic administration of a haptenised derivative of trinitrobenzene sulfonic acid (TNBS). The animals were treated with thymosin alpha 1, whose efficacy was evaluated according to clinical, histological and immunological parameters.
The application of hapten TNBS in the colon causes acute and chronic colitis in the rodents (Fiorucci S, Antonelli E, Distrutti E, Del Soldato P, Flower R J, Clark M J, Morelli A, Perretti M, Ignarro L J. NCX-1015, a nitric-oxide derivative of prednisolone, enhances regulatory T cells in the lamina propria and protects against 2,4,6-trinitrobenzene sulfonic acid-induced colitis in mice. Proc Natl Acad Sci U S A. 2002, 99:15770-5).
The animals were monitored daily for any onset of diarrhea, loss of body weight, blood in the faeces and to check their survival (correlated with the degree of activity of the disease, DAS). At the end of the experiment, the surviving mice were sacrificed, their colon dissected and the microscopic damage was evaluated (called mucosal activity score—MAS). The tissue segments were then used in order to measure the Myeloperoxidase (MPO) activity (an inflammation index).
The sectioned colons were examined under a microscope (×5) and classified according to their microscopic lesions on a scale from 0 to 10 based on criteria reflecting the inflammation, such as hyperemia, bowel thickening, and extension of ulcers.
MPO assays. Neutrophil infiltration in the colon was monitored by measuring MPO activity by means of a spectrophotometric assay with trimethylbenzidine (TMB) as a substrate according to a previously published method (Fiorucci S, Antonelli E, Distrutti E, Del Soldato P, Flower R J, Clark M J, Morelli A, Perretti M, Ignarro L J. NCX-1015, a nitric-oxide derivative of prednisolone, enhances regulatory T cells in the lamina propria and protects against 2,4,6-trinitrobenzene sulfonic acid-induced colitis in mice. Proc Natl Acad Sci U S A. 2002, 99:15770-5). The activity is expressed in U per mg of protein.
(§1) Treatment with thymosin alpha 1. Tα1 (purchased from Sigma, St. Louis, Mo., USA; product no. T3410; molecular formula C129H215N33O55) and the scrambled peptide were provided in the form of sterile dried powders. The powders were reconstituted in sterile water (endotoxin levels were <0.03 pg/ml, by standard Limulus lysate assay). Thymosin alpha 1 was administered at a dosage of 200 microgrammi/kg by intraperitoneal injection for 6 consecutive days starting from the day of TNBS colitis induction.
(§2) All the inflammatory and cytokine assessments were carried out the day after the end of treatment with thymosin alpha 1.

[2] = test system: CD4+CD25+ lymphocytes isolated from the lamina propria; test: Cytokine determination by ELISA on CD4+CD25+ lamina propria lymphocytes of mice with TNBS colitis; assay type: in vivo; conditions: TNBS+Tα1 mice; cells stimulated in vitro 48 h with anti-CD3 and anti-CD28, FIG. 4
Experimental: as §1
Cytokine determination. This was carried out via specific ELISA tests (ELISA kit, R&D Systems Inc, Minneapolis, Minn.) on the supernatants of lymphocyte cell cultures of CD4^+CD^25+ phenotype isolated from the lamina propria and stimulated in vitro for 48 h with antibodies directed against CD3 and CD28 molecules expressed on the lymphocytes (PharMingen, BD, Palo Alto, Calif.).
as §2

[3] = TNBS colitis, 200 microgrammi/kg intraperitoneal for 6 consecutive days, assessed the day after end of treatment, FIG. 3

Substance: thymosin alpha 1 (Ac-SDAAVDTSSEITTKDLKEKKEVVEEAEN; ends and bridges not checked; UniProt P06454 2-29, looked up) [thymic peptide found in nature; purchased from Sigma, product no; T3410]
- de-myelination, histological analysis of semifine spinal chord sections coloured with osmium tetroxide ([1]; MOG-immunised mice treated with thymosin alpha 1, FIG. 2): no significant sign of de-myelination
- overall effect on EAE incidence and neuropathological severity ([1]; conclusion from FIG. 1 and FIG. 2): protective effect
- DAS (degree of activity of the disease) (TNBS colitis; [3]): drastic reduction
- MAS (mucosal activity score) (TNBS colitis; [3]): drastic reduction
- MPO (myeloperoxidase) activity in colon (TNBS colitis; [3]): drastic reduction
- overall effect on the severity of IBD (TNBS colitis; experimental models of colitis, conclusion): protective effect
- IL-10 production [2]: clear prevalence of IL-10 production
- inflammatory/anti-inflammatory cytokine production pattern (IFN-γ, IL-17, IL-10) [2]: significantly disrupted
